Data as given in PMC8291587, “Guanidine Derivatives: How Simple Structural Modification of Histamine H3R Antagonists Has Led to the Discovery of Potent Muscarinic M2R/M4R Antagonists” (ACS Chemical Neuroscience, 2021).
Where two headings read alike, the source gives them in different places.

Legend:
hM2R = target: T1, hM2R (Homo sapiens, UniProt P08172); experiment: hM2R radioligand binding ([3H]NMS, CHO cell membranes)
T1 construct: host or cells: CHO cells, stably transfected; crude membranes
T1 sequence (P08172 1-466): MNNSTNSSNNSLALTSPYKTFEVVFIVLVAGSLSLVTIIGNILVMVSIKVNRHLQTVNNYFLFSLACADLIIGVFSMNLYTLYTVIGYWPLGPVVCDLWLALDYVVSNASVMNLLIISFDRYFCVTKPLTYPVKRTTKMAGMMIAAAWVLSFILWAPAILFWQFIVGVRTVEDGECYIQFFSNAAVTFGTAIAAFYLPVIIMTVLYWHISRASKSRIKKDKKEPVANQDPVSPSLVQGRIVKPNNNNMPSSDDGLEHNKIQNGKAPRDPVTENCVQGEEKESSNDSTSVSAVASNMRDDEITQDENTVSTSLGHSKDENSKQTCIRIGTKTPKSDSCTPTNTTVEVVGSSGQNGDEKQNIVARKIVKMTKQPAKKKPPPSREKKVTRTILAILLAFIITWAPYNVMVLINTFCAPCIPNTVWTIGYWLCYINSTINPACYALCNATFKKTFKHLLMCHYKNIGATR
Procedure: (§1) To clearly explain the obtained outcome, we engaged the radioligand binding experiment. The hM1–hM5 radioligand binding experiments were performed in the membrane fractions of Chinese hamster ovary cells (CHO) stably expressing human variants of muscarinic receptors. N-[^3H]Methylscopolamine was used as the radiolabeled ligand.[39] Three compounds were selected from ex vivo screening on guinea pig ileum. […] This compound is also not completely selective for the remaining muscarinic receptor subtypes with −log Ki values over 6. […] It is also a potent muscarinic M1R antagonist, and the M1R/M2R selectivity ratio is <10. It is worth noting that such nonspecific anticholinergics are often associated with neuropsychiatric and cognitive disturbances and that nonselective muscarinic M1R/M2R antagonists, such as scopolamine, can produce cognitive deficits. Further structural modifications of ADS10227 should be used to increase selectivity toward the M2R, as these may present fewer potential side effects associated with the activation of the phospholipase C signaling pathway.
The culture was derived from CHO cells stably transfected with the genes of human variants of muscarinic receptors. These were purchased from Missouri S&T cDNA Resource Center (Rolla, MO, USA). Cell cultures and crude membranes were prepared as described previously.[45] The cells were grown to confluence in 75 cm^2 flasks in Dulbecco’s modified Eagle’s medium (DMEM) supplemented with 10% fetal bovine serum, and 2 million cells were subcultured to 100 mm Petri dishes. The medium was supplemented with 5 mM butyrate for the last 24 h of cultivation to increase receptor expression. Cells were detached by mild trypsinization on day 5 after subculture. Detached cells were washed twice in 50 mL of phosphate-buffered saline and 3 min centrifugation at 250g. […]
(§2) All radioligand binding experiments were optimized and carried out according to general guidelines.[39] […] N-Methylscopolamine binding was measured directly in saturation experiments using six concentrations (30–1000 pM) of [^3H]NMS during incubation for 1 h (M2R), 3 h (M1R, M3R, and M4R), or 5 h (M5R). For calculations of the equilibrium dissociation constant (KD), concentrations of free [^3H]NMS were calculated by subtraction of bound radioactivity from total radioactivity in the sample and fitting eq 1 (Experimental Data analysis section). The binding of the tested ligands was determined in competition experiments with 100 pM [^3H]NMS. […] Nonspecific binding was determined in the presence of 1 μM unlabeled atropine. […]

H1R = target: T2, H1R (Cavia porcellus, UniProt P31389); experiment: Ex vivo screening of histamine H1R antagonists on guinea pig ileum, variant with 0.05 μM atropine; conditions: isolated guinea pig ileum, histamine as agonist
T2 construct: from tissue; host or cells: isolated distal ileum of male guinea pigs
T2 sequence (P31389 whole entry): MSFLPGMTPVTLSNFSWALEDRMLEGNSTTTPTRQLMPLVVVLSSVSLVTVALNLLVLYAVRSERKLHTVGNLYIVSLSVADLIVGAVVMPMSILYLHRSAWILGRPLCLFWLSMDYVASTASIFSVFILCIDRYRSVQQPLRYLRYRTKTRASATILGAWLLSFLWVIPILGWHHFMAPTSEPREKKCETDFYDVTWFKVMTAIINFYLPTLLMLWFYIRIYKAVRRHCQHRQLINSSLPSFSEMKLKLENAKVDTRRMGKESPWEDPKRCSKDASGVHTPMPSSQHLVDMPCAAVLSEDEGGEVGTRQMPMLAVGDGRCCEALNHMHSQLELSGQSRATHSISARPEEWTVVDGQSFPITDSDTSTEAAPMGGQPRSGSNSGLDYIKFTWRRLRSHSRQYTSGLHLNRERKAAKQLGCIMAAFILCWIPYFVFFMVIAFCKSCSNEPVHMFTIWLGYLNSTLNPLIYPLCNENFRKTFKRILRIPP
Procedure: The second histamine receptor located in the guinea pig ileum is H1R. […] The H1R antagonistic effect was measured on isolated guinea pig ileum stimulated to contract by histamine.[37] To assess and exclude the influence of the ADS compounds on muscarinic receptors, two test variations were used: one with the addition of 0.05 μM atropine and one without.
Male guinea pigs, weighing 300–400 g, were euthanized by a blow to the neck. A 20–30 cm length of the distal ileum, apart from the terminal 5 cm, was rapidly removed and placed in phosphate buffer at room temperature (pH 7.4) containing (mM) NaCl (136.9), KCl (2.6), KH2PO4 (1.47), Na2HPO4 (9.58), and indomethacin (1 × 10^–6 mol/L). The intraluminal content was rinsed, and the isolated intestine was cut into 1.5–2 cm segments. The preparations were mounted isotonically in a 20 mL organ bath filled with Krebs buffer: composition (mM) NaCl (118), KCl (5.6), MgSO4 (1.18), CaCl2 (2.5), NaH2PO4·H2O (1.28), NaHCO3 (25), glucose (5.55), and indomethacin (3 × 10^–7 mol/L). […] The solution was continuously bubbled with a 95% O2:5% CO2 mixture and maintained at 37 °C under a constant load of 0.5 g (Hugo Sachs Hebel–Messvorsatz (Tl-2)/HF-modem; Hugo Sachs Elektronik, Hugstetten, Germany) connected to a pen recorder (Kipp & Zonen BD41, Delft, Holland). During an equilibration period of 40 min, Krebs buffer was changed every 10 min. The first cumulative concentration–response curve was determined for histamine (10 nM to 10 mM) at increasing concentrations spaced by 3- or 3.3-fold. The second to the fourth (or fifth) curves were measured in the presence of an increasing concentrations of antagonist (incubation time 10 min). The pA2 values were calculated according to Arunlakshana and Schild.[37] Statistical analysis was carried out with the Students’ t test. In all tests, a p < 0.05 was considered statistically significant.

hM3R = target: T3, hM3R (Homo sapiens, UniProt P20309); experiment: hM3R radioligand binding ([3H]NMS, CHO cell membranes)
T3 construct: host or cells: CHO cells, stably transfected; crude membranes
T3 sequence (P20309 whole entry): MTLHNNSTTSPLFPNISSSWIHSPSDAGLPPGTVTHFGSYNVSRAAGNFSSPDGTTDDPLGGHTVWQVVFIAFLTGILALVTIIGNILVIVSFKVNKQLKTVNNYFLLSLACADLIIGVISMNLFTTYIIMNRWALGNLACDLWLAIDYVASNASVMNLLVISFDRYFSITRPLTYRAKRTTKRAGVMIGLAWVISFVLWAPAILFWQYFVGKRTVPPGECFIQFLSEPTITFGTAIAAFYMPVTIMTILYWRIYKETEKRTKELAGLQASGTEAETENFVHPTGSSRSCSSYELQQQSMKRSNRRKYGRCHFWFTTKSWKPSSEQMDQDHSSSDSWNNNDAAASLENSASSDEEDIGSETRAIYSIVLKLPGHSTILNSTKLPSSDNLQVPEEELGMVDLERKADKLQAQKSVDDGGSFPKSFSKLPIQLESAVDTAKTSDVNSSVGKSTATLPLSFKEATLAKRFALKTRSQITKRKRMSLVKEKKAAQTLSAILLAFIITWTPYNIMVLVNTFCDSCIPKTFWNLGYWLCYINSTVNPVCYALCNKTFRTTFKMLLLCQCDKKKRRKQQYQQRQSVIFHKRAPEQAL
Procedure: as §1
The culture was derived from CHO cells stably transfected with the genes of human variants of muscarinic receptors. These were purchased from Missouri S&T cDNA Resource Center (Rolla, MO, USA). Cell cultures and crude membranes were prepared as described previously.[45] […]
as §2

[1] = read-out: H1R+atropine pA2 gpi ± sem (converted)
[2] = read-out: hM3R -log(Ki) ± sem (converted)

| SMILES | Ki (hM2R) [nM] | Kb (H1R; H1R+atropine pA2 gpi ± sem) [nM] | Ki (hM3R; hM3R -log(Ki) ± sem) [nM] | Ki (hM2R; [3H]NMS, CHO membranes, read-out: hM2R -log(Ki) ± sem (converted)) [nM] | M1R/M2R selectivity ratio (hM2R; from hM1R and hM2R binding) | Kb (H1R; [1]) [nM] | Ki (hM3R; [2]) [nM] | Ki (hM2R; [3H]NMS, CHO membranes, read-out: affinity to hM2R (Ki)) [nM] |
| --- | --- | --- | --- | --- | --- | --- | --- | --- |
| N=C(N)N(CCCCN1CCN(CCCCCCCOc2ccccc2)CC1)Cc1ccccc1 [ADS1017] | 37.2 | 251 | 347 |  |  |  |  |  |
| N=C(N)N(CCCCN1CCN(C[C@H]2CC[C@@H](COc3ccccc3)CC2)CC1)Cc1ccccc1 [ADS10227, 1-{4-{4-{[4-(phenoxymethyl)cyclohexyl]methyl}piperazin-1-yl}but-1-yl}-1-(benzyl)guanidine] |  |  |  | 2.82 | < 10 | 257 | 51.3 |  |
| [H]/N=C(/N)N(CCCCN1CCN(CC2CCC(COc3ccccc3)CC2)CC1)Cc1ccc(C(F)(F)F)cc1 (stereo not shown) [ADS10239] |  |  |  |  |  | 151 | 123 | 52 |
